In brackets after ≈: the same amount, converted by molar mass.
Tests used:
[1] = system: T1, human CYP450 enzymes (seven isozymes tested); assay: CYP450 inhibition, seven isozymes overall; assay type: biochemical; conditions: human, read-out: calculated IC50 values
T1 construct: other: seven isozymes tested

human CYP450 enzymes = assay: CYP450 inhibition, seven isozymes overall; assay type: biochemical; conditions: 10 μM, seven isozymes tested
CYP2D6 = CYP2D6 (Homo sapiens, UniProt P10635); assay: in vitro; conditions: probe Dextromethorphan
Sequence of CYP2D6 (P10635 whole entry): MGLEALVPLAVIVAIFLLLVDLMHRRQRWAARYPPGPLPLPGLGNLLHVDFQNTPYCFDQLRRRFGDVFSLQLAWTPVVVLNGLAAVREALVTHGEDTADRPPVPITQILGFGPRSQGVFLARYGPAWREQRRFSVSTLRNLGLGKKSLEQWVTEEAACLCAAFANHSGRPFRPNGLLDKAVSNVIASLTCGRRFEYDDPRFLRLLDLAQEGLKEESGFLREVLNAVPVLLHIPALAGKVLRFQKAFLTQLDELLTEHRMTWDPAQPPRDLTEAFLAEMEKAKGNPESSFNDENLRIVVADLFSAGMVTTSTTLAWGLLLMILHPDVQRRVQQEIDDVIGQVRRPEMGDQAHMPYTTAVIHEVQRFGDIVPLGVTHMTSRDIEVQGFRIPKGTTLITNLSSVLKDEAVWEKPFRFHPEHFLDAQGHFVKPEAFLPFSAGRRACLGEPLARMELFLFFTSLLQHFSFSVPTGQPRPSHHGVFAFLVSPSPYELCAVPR

[2] = system: allergic sheep challenged with Ascaris suum; assay: Sheep model of allergic bronchoconstriction and airway hyperresponsiveness; assay type: in vivo
Protocol: Compound 2 was also tested in the sheep model of allergic bronchoconstriction and airway hyperresponsiveness according to the methods disclosed in Abraham, W. M Palm Pharmacol Ther (2008) 21:743-754. Allergic sheep challenged with Ascaris suum show a substantial, biphasic increase in pulmonary resistance (RL). The first four hours are considered the early asthmatic response (EAR); the next four hours (hours 4-8) are considered to be the late asthmatic response (LAR). To assess airway responsiveness (AHR), the cumulative carbachol dose in breath units that increased pulmonary resistance 400% over the post-buffer value (PC 400) was calculated from the dose response curve. One breath unit was defined as one breath of a 1% w/v carbachol solution. A pre-challenge PC 400 was obtained 1-3 days before the start of dosing.
Compound 2 was formulated as a micronized powder suspended in 0.5% methylcellulose at a concentration of 6 mg/ml and administered orally at a dose of 30 mg/kg once a day for 4 days, at the same approximate time each day. Sheep were given 30 mg/kg Compound 2 orally daily four days. Two hours after the final dose of Compound 2, the sheep were subjected to an allergen (Ascaris) challenge. Each sheep was restrained in a prone position and its head was immobilized prior to topical anesthesia of the nasal passages. A balloon catheter was advanced through one nostril into the lower esophagus. Each sheep was intubated with a cuffed endotracheal tube through the other nostril. Tracheal and pleural pressures were determined using the endotracheal tube and balloon catheter, respectively. The trans-pulmonary pressure, i.e., the difference between the tracheal and pleural pressures, was measured using a differential pressure transducer catheter system. RL was determined by connecting the distal end of the endotracheal tube to a pneumotachograph. Data were collected from five to ten breaths to a computer and used to calculate RL. Data from the same sheep challenged with Ascaris prior to the initiation of Compound 2 treatment were used to establish baseline values. Monitoring conditions for the control and drug trials were identical.
On the day of challenge and two hours after the final dose of Compound 2, an aerosol of Ascaris suum (82,000 protein nitrogen units/mL) was generated using a nebulizer and delivered to the sheep using a Harvard respirator. RL was determined one hour prior to challenge, immediately following Ascaris challenge, and hourly thereafter for eight hours. Challenge to 4 hours is considered the EAR while 4 to 8 hours is considered the LAR.
Sheep were also challenged with aerosolized carbachol, a cholinergic agonist that has a negative impact on AHR. […]

[3] = PK comparison of capsule and suspension formulations; conditions: monkey, in vivo, po, 250 mg, monkeys
Protocol: Another study was conducted to compare the PK parameters of capsule and suspension formulations of Compound 2. All monkeys were dosed with 250 mg Compound 2. Two groups were dosed with the capsule formulation: one fasted and one allowed food ad libitum. The animals that received the suspension formulation were dosed using a nasogastric tube and were fasted. […] When the PK profile of the capsule formulation was compared in both fasted and fed monkeys, the bioavailability of Compound 2 capsules was numerically greater in fasted monkeys.

beagle dogs = assay: Hepatotoxicity safety profile, serum biomarkers; assay type: in vivo; conditions: for ALP d-5 / ALT d-5 / AST d-5 / GGT d-5: day -5 before dosing; for ALP d5 / ALT d5 / AST d5 / GGT d5: day 5
Protocol: Compound 2 in vehicle (0.5% methylcellulose [400 cps] in deionized water) was administered orally once daily for five consecutive days by gavage once to 3 groups of non-naïve male and female beagle dogs. Each group received one dose level. […] […] The dose volume was 10 ml/kg for all groups. Hepatoxicity was measured via the serum biomarkers of alanine aminotransferease [ALT], aspartate aminotransferase [AST], alkaline phosphastase [ALP] and gamma-glutamyl transferase [GGT] which represent hepatotoxicity or bile duct injury.

rTRPA1 = target: T2, rTRPA1 (Rattus norvegicus, UniProt Q6RI86); assay: TRPA1 IC50, whole-cell patch clamp; assay type: cell-based; conditions: rTRPA1, 10 μM AITC; read-out: IC50 Inward current
T2 construct: expressed in transfected cells
T2 sequence (Q6RI86 whole entry): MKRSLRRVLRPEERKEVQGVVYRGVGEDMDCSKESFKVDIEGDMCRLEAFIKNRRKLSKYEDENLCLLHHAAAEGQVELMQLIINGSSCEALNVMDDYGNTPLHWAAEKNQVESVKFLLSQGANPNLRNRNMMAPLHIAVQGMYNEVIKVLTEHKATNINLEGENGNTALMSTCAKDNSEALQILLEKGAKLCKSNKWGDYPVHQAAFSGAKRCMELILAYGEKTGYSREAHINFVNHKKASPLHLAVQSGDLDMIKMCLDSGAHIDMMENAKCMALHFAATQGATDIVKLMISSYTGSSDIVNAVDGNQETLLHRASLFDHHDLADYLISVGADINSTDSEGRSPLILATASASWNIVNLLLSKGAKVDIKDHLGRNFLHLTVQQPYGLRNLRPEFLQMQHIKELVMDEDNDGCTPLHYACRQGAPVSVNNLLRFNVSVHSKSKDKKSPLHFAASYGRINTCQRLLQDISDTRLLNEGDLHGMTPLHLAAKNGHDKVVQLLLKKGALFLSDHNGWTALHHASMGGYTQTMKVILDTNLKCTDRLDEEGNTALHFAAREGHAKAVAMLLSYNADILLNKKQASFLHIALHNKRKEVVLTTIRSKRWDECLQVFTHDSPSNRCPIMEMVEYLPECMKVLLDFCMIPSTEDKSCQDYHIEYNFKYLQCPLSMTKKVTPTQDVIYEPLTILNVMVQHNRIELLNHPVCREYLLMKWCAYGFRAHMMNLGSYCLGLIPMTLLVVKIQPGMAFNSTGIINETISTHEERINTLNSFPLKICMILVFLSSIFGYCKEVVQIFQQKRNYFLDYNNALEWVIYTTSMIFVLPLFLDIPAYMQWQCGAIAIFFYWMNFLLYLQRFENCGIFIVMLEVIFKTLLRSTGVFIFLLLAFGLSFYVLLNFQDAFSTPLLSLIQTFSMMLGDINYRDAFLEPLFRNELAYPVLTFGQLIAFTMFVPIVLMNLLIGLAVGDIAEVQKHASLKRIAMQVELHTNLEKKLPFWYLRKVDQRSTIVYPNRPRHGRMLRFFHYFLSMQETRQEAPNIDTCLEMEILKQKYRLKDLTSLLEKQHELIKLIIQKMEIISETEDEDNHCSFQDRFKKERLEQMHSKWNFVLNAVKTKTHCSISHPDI

CYP2C19 = CYP2C19 (Homo sapiens, UniProt P33261); assay: in vitro; conditions: probe Mephenytoin
Sequence of CYP2C19 (P33261 whole entry): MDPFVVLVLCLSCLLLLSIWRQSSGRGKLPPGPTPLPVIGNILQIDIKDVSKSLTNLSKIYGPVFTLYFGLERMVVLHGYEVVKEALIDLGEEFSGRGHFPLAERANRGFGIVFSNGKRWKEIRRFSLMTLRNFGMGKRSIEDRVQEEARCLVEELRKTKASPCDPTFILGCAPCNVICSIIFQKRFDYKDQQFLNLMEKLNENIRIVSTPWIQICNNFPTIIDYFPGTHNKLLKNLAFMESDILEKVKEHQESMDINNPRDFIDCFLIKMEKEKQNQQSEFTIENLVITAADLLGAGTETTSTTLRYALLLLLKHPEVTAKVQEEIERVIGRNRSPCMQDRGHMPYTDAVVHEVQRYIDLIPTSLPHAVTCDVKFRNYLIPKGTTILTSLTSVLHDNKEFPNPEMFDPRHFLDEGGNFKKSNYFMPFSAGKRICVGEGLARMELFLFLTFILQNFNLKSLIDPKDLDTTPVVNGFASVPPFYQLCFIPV

[4] = Solubility in simulated gastrointestinal fluid (SGF); assay type: physicochemical; conditions: simulated gastric fluid, thermodynamic from solid, HCl 0.1N at 25° C.
Protocol: Solubility was further assessed in simulated gastrointestinal fluid (SGF) (HCl 0.1N at 25° C.). Briefly, compound was agitated for 30 hours and sampled, centrifuged, and analyzed by UPLC.

[5] = 30 mg/kg orally once a day for 4 days

C[C@@H](C(=O)Nc1ccnc(-c2cnc(N3CCC[C@H]3C(F)(F)F)nc2)n1)n1cnc2c1c(=O)n(C)c(=O)n2C [Compound 2, (S)-2-(1,3-dimethyl-2,6-dioxo-2,3-dihydro-1H-purin-7(6H)-yl)-N-(2′-((S)-2-(trifluoromethyl)pyrrolidin-1-yl)-[2,5′-bipyrimidin]-4-yl)propanamide]
IC50 [1]: > 10 µM | maximum block of human CYP450 enzymes (human CYP450 enzymes): up to 37% | inhibition at 10 µM (CYP2D6): 9.5% | peak early airway responses [2, 5]: did not affect the peak early airway responses | protection of late airway responses [2, 5]: 85% | airway hyperresponsiveness (PC400) ([2]; 30 mg/kg orally, carbachol challenge 24 hours after final dose): reduced the airway hyperresponsiveness to levels similar to those observed in sheep that were not challenged with Ascaris suum | average LAR (increase in pulmonary resistance) ([2]; treatment trial, 30 mg/kg orally once a day for 4 days): 19±2.3% | bioavailability ([3]; Capsule (fasted)): 13% | bioavailability ([3]; Capsule (fed)): 10% | bioavailability ([3]; Suspension (fasted)): 7.8% | ALP d-5 (beagle dogs; 30 mg/kg group): 93.0 U/L | ALT d-5 (beagle dogs; 30 mg/kg group): 19.0 U/L | AST d-5 (beagle dogs; 30 mg/kg group): 20.0 U/L | GGT d-5 (beagle dogs; 30 mg/kg group): 0.0 U/L | ALP d5 (beagle dogs; 30 mg/kg oral once daily): 143.0 U/L | ALT d5 (beagle dogs; 30 mg/kg oral once daily): 20.0 U/L | AST d5 (beagle dogs; 30 mg/kg oral once daily): 22.0 U/L | GGT d5 (beagle dogs; 30 mg/kg oral once daily): 0.0 U/L | ALP d-5 (beagle dogs; 100 mg/kg group): 120.0 U/L | ALT d-5 (beagle dogs; 100 mg/kg group): 21.0 U/L | AST d-5 (beagle dogs; 100 mg/kg group): 20.0 U/L | GGT d-5 (beagle dogs; 100 mg/kg group): 0.0 U/L | ALP d5 (beagle dogs; 100 mg/kg oral once daily): 141.0 U/L | ALT d5 (beagle dogs; 100 mg/kg oral once daily): 19.0 U/L | AST d5 (beagle dogs; 100 mg/kg oral once daily): 21.0 U/L | GGT d5 (beagle dogs; 100 mg/kg oral once daily): 0.5 U/L | ALP d-5 (beagle dogs; 300 mg/kg group): 118.0 U/L | ALT d-5 (beagle dogs; 300 mg/kg group): 28.0 U/L | AST d-5 (beagle dogs; 300 mg/kg group): 22.0 U/L | GGT d-5 (beagle dogs; 300 mg/kg group): 0.0 U/L | ALP d5 (beagle dogs; 300 mg/kg oral once daily): 101.0 U/L | ALT d5 (beagle dogs; 300 mg/kg oral once daily): 21.0 U/L | AST d5 (beagle dogs; 300 mg/kg oral once daily): 22.0 U/L | GGT d5 (beagle dogs; 300 mg/kg oral once daily): 0.0 U/L | serum biomarkers of hepatotoxicity (ALT, AST, ALP, GGT) (beagle dogs; beagle dogs, oral once daily for five days): did not elevate the serum biomarkers up to and including a dose of 300 mg/kg | IC50 (rTRPA1): 0.0229 ± 0.0046 µM | inhibition at 10 µM (CYP2C19): 37.1% | solubility at 30 h [4]: 1050 µg/mL (≈ 1930 µM)
